Literature values in patent US12484617B2, “Oral pouch product” (Altria Client Services LLC, priority 2022, dated 2025).

Details: free base (non-protonated)

CN1CCCC1c1cccnc1 (stereo not shown) [Free-base nicotine, 3-(1-methyl-2-pyrrolidinyl)pyridine]
pKa value: about 8
